This passage reports melting point results from a melting point compilation (Tetko et al.; mined from patent text by program, amines drawn as free bases though some values may be those of a salt).

As a reminder, the melting point is the temperature of the solid-liquid transition.

SMILES strings stand for the structures.

The molecule `COc1ccc(CN(C)CCCCc2ccc(NC(=O)c3cnc4ccccc4n3)cc2)cc1OC` registered a melting point of 82 to 85 °C.
Under `CC(C)C[C@H](NC(=O)OCc1ccccc1)C(=O)N[C@@H](Cc1cccs1)C(=O)CSCc1ccco1` stands 106 to 107 °C; under `O=C(c1nnc(-c2ccccc2)o1)N1CC(Oc2ccc(CN3CC4(COC4)C3)c(Cl)c2)C1`, 114 to 124 °C.
The same measure for `Cc1cccc(C)c1N(CC(=O)NCC(=O)O)C(=O)c1ccc(Cl)cc1`: 200 to 201 °C.
The same measure for `O=C(O)[C@@H]1C[C@H]1Sc1nc2ccccc2cc1-c1ccccc1` (relative stereo): 168 to 170 °C; for `COc1c(C)c2c(c(C)c1NC(=O)CC(C)(C)C)C(c1ccc(C(C)C)cc1)CO2` (centres undefined): 162 to 163 °C.
Molecule `COc1ccn(-c2ccc(C3CCN(S(=O)(=O)C(C)(C)C(=O)NO)CC3)cc2C)n1` had a melting point of 172 to 173 °C.
The same measure for `CSC(=S)N1CCN(Cc2ccccc2N)CC1`: 110 to 114 °C; for `CCC(=O)C=Cc1ccc(OCc2ccccc2)cc1`: 123 to 125 °C.
The same measure for `CCNC(=O)Nc1snc(C)c1C(=O)OCC`: 150 to 151 °C; for `Nc1nc(N)c(CCNc2ccc(C(=O)N[C@@H](CCC(=O)O)C(=O)O)cc2)c(=O)[nH]1`: 180 to 185 °C.
The same measure for `CC(C)(C)N(CCOCC#Cc1cncs1)C(=O)C(=O)O`: 104 to 105 °C.
Molecule `O=c1[nH]c2cc(F)c(Br)c([N+](=O)[O-])c2[nH]c1=O` gave a melting point of 323 to 327 °C.
Under `COC(=O)/C=C/c1c(OC)cccc1OC` stands 76 to 78 °C.
As for `C=CCOCCCCOc1ccc2c(c1)Cc1cc(C(C)=O)ccc1-2`, the melting point worked out at 77 °C.
As to `CC1=CC(=O)CC2CCC3C4C(C#N)CC(=O)C4(C)CCC3C12C` (centres undefined), the melting point came out at 193 °C.
Under `N#Cc1cc(F)ccc1Oc1cccc(C(F)(F)F)c1` stands 51 °C; under `CCOC(=N)C(O)c1ccccc1` (centres undefined), 65 to 67 °C; under `CCc1oc(C2CCCCC2)nc1CC(=O)O`, 101 to 102 °C.
The same measure for `COC=C(C(=O)OC)c1csc2ccc(CBr)cc12`: 124 to 125 °C; for `CC(C)(CONCc1ccccc1Cl)C(=O)O`: 78 to 80 °C.
Under `CCOC(=O)CN1C(=O)CSC1=NN=C(C)C` stands 60 to 62 °C; under `CS(=O)(=O)Nc1cc2c(cc1Oc1ccccc1)CCO2`, 133 °C; under `CN1CCN(C(=O)COc2ccc(N)cc2)CC1`, 71 to 73 °C.
On to `O=C(NCC(=O)N1c2ccccc2N(Cc2ccccc2)C(=O)[C@H]2CCC[C@H]21)c1ccc(C(F)(F)F)cc1` (relative stereo), for which the melting point was in the range of 218 to 220 °C.
With `Cc1cccc(-c2n[nH]cc2-c2ccc(F)c(-c3ccc(C(C)O)cn3)c2)n1` (centres undefined), the melting point fell in the range of 149 to 151 °C.
Under `CC(=O)NCCCCNc1ccc(NCCN(C)C)c2c1C(=O)c1ccccc1C2=O` stands 160 to 162 °C.
Under `Cn1nc(C(F)(F)F)nc1NC(=O)CCCOc1cccc(CN2CCCCC2)c1` stands 96 to 97 °C; under `CCOC(=O)C(=CNC1CC1)C(=O)c1cc(F)c(Cl)cc1Cl`, 89 to 90 °C; under `COC(=O)c1ccc(CN2N=C(c3ccc(OC)c(OC)c3)[C@@H]3CCCC[C@@H]3C2=O)cc1` (relative stereo), 90 to 92 °C.
Under `O=C(O)c1ccc(-c2ccc(F)cc2)cc1` stands 138 to 141 °C.
`CCCCCC(C=Cc1ccc(C(=O)O)cc1)c1ccc2c(c1)C(C)(C)CCS2` (racemic) yielded a melting point of 146 °C.
The same measure for `CCN(CC)CCOc1ccc2cc3ccc(OCCN(CC)CC)c(Cl)c3nc2c1Cl`: 83 to 84 °C.
Under `CC(C)Cc1cc(S(=O)(=O)Cl)c(C(C)C)cc1Cl` stands 90 to 94 °C.
Molecule `CON=C1CN(c2nc3c(cc2F)c(=O)c(C(=O)O)cn3-c2ccc(F)cc2F)CC12CN(C(=O)OC(C)(C)C)C2` yielded a melting point of 230 to 232 °C.
Turning to `O=C(O)COc1c(Br)cc(C(=O)c2c(Cc3ccccc3)oc3ccccc23)cc1Br`, the melting point was in the range of 165 to 167 °C.
Under `CC(C)(C)c1cc(NC(=O)NNC(=O)c2ccc(N)cc2)cc(C(C)(C)C)c1O` stands 245 to 246 °C; under `COC(=O)c1ccc(C(=O)N(C)c2ccccc2)cc1`, 78 to 80 °C.
Molecule `CS(=O)(=O)Cc1cc(C(O)CNCCCCCCNCC(O)c2ccc(OCc3ccccc3)c(CS(C)(=O)=O)c2)ccc1OCc1ccccc1` (centres undefined) displayed a melting point of 146 to 148 °C.
The same measure for `N#Cc1c(F)cccc1Nc1ccccc1`: 97 to 99 °C.
`CCN(CC)C(=O)c1ccc(Nc2nc(OCC3CCCCC3)c3nc[nH]c3n2)cc1` gave a melting point of 138 to 140 °C.
`COc1ccc(C(=O)NCCCSc2nnnn2C)cc1` gave a melting point of 118 to 122 °C.
Under `Nc1ccc2ccc(Oc3ccccc3Br)nc2n1` stands 206 °C; under `O=c1cc(-c2cccc(Br)c2)sc(N2CCOCC2)c1`, 181 to 182 °C.
The same measure for `CCCCc1nc2c(C)cnc(C(=O)OC)c2n1Cc1ccc(-c2ccccc2-c2nnn[nH]2)cc1`: 149 to 151 °C; for `O=C1NC(=O)C(=Cc2ccc(OCCc3ccccc3)cc2)S1`: 185 to 187 °C; for `COC(=O)c1ccc(-c2nc(C(N)=O)c3[nH]c(=O)n(-c4ccccc4OC)c3n2)cc1`: 286 to 290 °C.
Under `Cn1c(COc2ccc(CC3SC(=O)NC3=O)cc2)nc2ccc(Oc3cccc(NC(=O)Nc4cccc(C(F)(F)F)c4)c3)cc21` (centres undefined) stands 162 to 163 °C.
On to `CC(C)C(=C=O)NC(=O)Nc1ccc([N+](=O)[O-])cc1O`, for which the melting point was in the range of 168 to 169 °C.
The same measure for `Cc1cc(CCc2cc(C)cc(C(C)(C)C)c2O)c(O)c(C(C)(C)C)c1`: 104 to 105 °C.
The same measure for `CC#CC1(O)CCC2C3CCC4=CC(=O)CCC4C3CCC21CCC` (centres undefined): 182 to 184 °C; for `C[C@H]1N[C@H](c2ccc(Br)cc2)[C@@H]2C(=O)N(Cc3ccccc3)C(=O)[C@@H]21` (racemic): 170 to 172 °C; for `CC(=O)Oc1ccc(C(=O)NCCO[N+](=O)[O-])cc1`: 95 to 97 °C.
The same measure for `N#Cc1c2ccccc2c(-c2ccc(O[C@H](Cc3ccccc3)C(=O)O)cc2)c2c1sc1ccccc12`: 145 to 148 °C.
`NC(=O)c1[nH]cnc1OC1OC(COCc2ccccc2)C(OCc2ccccc2)C1OCc1ccccc1` (centres undefined): the melting point was 215 to 216 °C.
As to `CC(C)(C)NCC(O)c1ccc(N)c(C(F)(F)F)c1` (centres undefined), the melting point is 145 to 147 °C.
`Clc1nccc(N2CCC3(CC2)OCc2ccccc23)c1Cl`: the melting point came out at 161 °C.
The same measure for `CC(=O)Nc1nn(C)c2c1sc1cc(C)ccc12`: 253 to 255 °C; for `COc1ccc(Oc2cccc(Cl)n2)cc1`: 63 to 65 °C; for `CC(=O)NC[C@H]1CN(c2ccc(C3CCN(CCF)CC3)c(F)c2)C(=O)O1`: 155 to 157 °C.
The same measure for `CC(C(=O)O)c1ccc2c(c1)C(=O)C(C(C)C)C2` (centres undefined): 130 to 132 °C; for `CC(C)(C)CC(C)(C)c1ccc(OCCOCCO)c(O)c1`: 112 to 113 °C.
Under `FC(F)Sc1nc2ncccc2s1` stands 41 to 43 °C; under `CC1C=C(c2nnn[nH]2)CN(CC(=O)O)C1` (centres undefined), 150 to 152 °C; under `Cc1ncc(CSSCc2cnc(C)c(O)c2CN(C)C)c(CN(C)C)c1O`, 195 to 201 °C.
`CCC(C(=O)NC)n1nnc2ccccc21` (centres undefined) had a melting point of 136 to 137 °C.
`CCOC(=O)c1cn(OC)c2nc3cc(F)c(F)cc3cc2c1=O` displayed a melting point of 266 to 268 °C.
Under `COCC1(N2C(=O)NC(=O)C2=O)C=CC=C(OC2CC(F)CC2Cl)C1` (centres undefined) stands 90 to 91 °C.
Under `COc1cc2nccn2c(OC)n1` stands 120 to 121 °C; under `COc1cc(N)ccc1-c1nc(-c2cccnc2)c(C)[nH]1`, 95 to 100 °C; under `Cc1ccc(-n2nccn2)c(C(=O)O)c1`, 168 °C.
Under `CC(=O)c1c(NC(=O)c2ccc([N+](=O)[O-])cc2)cccc1C(F)(F)F` stands 245 °C; under `CC12CCC(O)CC1CCC1C2CCC2(C)C(C=NNC(N)=O)CCC12O` (centres undefined), 222 to 226 °C.
Turning to `CCOC(=O)C(=NOC(C)(C)C(=O)OC(C)(C)C)c1csc(NC(c2ccccc2)(c2ccccc2)c2ccccc2)n1`, the melting point was 124 to 125 °C.
`O=C(CBr)c1ccc(Sc2ccccc2)cc1` showed a melting point of 46 °C.
Under `CC(=O)OC=C1CSC2C(NC(=O)Cc3ccccc3)C(=O)N2C1C(=O)OC(C)(C)C` (centres undefined) stands 178 to 183 °C; under `COc1cc(CCC(=O)O)ccc1OCCCc1cn(-c2ccc(C(F)(F)F)cn2)nc1C`, 136 to 137 °C; under `C=CCNc1nc(NCc2ccccc2)c2cc([N+](=O)[O-])ccc2n1`, 235 to 236 °C.
The same measure for `O=C(NCCCCOc1cc(CN2CCCCC2)ccn1)c1cn[nH]c1`: 145 to 147 °C.
Under `CN1Cc2c(-c3nc(CCl)cs3)ncn2-c2ccc(F)c(Cl)c2C1=O` stands 234 to 235 °C; under `COc1ccc(C2=NNC(=O)CS2)c(OC)c1`, 162 to 164 °C; under `CCCOc1ccc(-c2cccc(/C=C/C(=O)OCC)c2)cc1OC`, 66 to 68 °C.
The molecule `CC(C)(C)OC(=O)NCc1ccc(-c2ccc(O)c(Br)c2)cc1` had a melting point of 113 to 117 °C.
The same measure for `COc1cc(C2OCC(C)(C)C2(O)C(C)(C)C)cc(OC)c1Br` (centres undefined): 130 to 131 °C; for `CCCCCCOc1cccc2ncccc12`: 46 to 49 °C.
The molecule `CCCc1c(C(=O)NCc2ccc(-c3ccc(OCC(=O)O)cc3)cc2)cnn1-c1ccccc1` showed a melting point of 190 to 192 °C.
The same measure for `Cc1cc2cc(CN3CCC(C(N)=O)CC3)cnc2cc1NC(=O)c1ccc(-c2ccc(F)cc2)cc1`: 265 °C.
Under `c1ccc(-c2ccc(Nc3nc4ccccc4o3)cc2)cc1` stands 213 to 214 °C; under `O=C(O)COc1ccc2c(-c3ccccn3)noc2c1Cl`, 255 to 256 °C.
